target: T1, Human O-GlcNAcase (His-Tagged hOGA) (Homo sapiens, UniProt O60502); test: Human O-GlcNAcase enzyme inhibition assay; type: biochemical; details: 20 nM His-Tagged hOGA, 10 μM FL-GlcNAc, McIlvaine's Buffer pH 6.5, 60 min at room temperature, fluorescence; read-out: OGA IC50
T1 sequence (O60502 1-916): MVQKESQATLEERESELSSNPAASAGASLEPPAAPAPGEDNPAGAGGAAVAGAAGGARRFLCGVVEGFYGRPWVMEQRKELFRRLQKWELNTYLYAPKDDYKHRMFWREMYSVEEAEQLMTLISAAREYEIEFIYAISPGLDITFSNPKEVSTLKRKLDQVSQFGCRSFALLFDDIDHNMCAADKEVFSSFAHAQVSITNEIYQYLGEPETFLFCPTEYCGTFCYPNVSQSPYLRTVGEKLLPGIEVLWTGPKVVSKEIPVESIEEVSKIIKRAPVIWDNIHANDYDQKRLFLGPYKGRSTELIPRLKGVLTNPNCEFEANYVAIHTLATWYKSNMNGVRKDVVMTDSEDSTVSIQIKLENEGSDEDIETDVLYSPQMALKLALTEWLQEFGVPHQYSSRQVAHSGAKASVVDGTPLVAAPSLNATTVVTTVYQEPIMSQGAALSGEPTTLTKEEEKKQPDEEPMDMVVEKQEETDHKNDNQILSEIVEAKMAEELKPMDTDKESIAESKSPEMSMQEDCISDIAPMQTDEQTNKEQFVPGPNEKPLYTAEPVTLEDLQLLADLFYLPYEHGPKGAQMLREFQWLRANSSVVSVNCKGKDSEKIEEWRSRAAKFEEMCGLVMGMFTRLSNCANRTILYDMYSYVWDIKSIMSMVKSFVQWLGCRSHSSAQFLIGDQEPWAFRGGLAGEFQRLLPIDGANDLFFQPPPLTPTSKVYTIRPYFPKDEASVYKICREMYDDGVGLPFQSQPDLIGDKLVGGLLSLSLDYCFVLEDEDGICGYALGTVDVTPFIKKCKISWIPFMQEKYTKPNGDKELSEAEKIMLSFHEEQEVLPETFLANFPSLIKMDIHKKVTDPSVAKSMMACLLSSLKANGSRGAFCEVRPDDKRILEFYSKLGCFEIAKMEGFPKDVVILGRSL
Protocol: Example B01: Human O-GlcNAcase Enzyme Inhibition Assay
5 μl of the appropriate concentration of a solution of inhibitor in Mcllvaine's Buffer (pH 6.5) in 2% DMSO (for a dose response curve calculation) is added into each well of a 384-well plate (Greiner, 781900). Then, 20 nM of His-Tagged hOGA and 10 μM of FL-GlcNAc (Fluorescein mono-beta-D-(2-deoxy-2-N-acetyl) glucopyranoside; Marker Gene Technologies Inc, M1485) were added to the 384-well plate for a final volume of 20 μl. After incubation for 60 min at room temperature, the reaction was terminated by the addition of 10 μL of stop buffer (200 mM glycine, pH 10.75). The level of fluorescence (λexc 485 nm; (λemm 520 nm) was read on a PHERAstar machine. The amount of fluorescence measured was plotted against the concentration of inhibitor to produce a sigmoidal dose response curve to calculate an IC50. All individual data was corrected by subtraction of the background (Thiamet 3 uM=100% inhibition) whilst 0.5% DMSO was considered as the control value (no inhibition).

Row | Compound | IC50
1 | Fc1cc(-c2cccnc2)ccc1CN1CCCC1c1ccc2c(c1)OCCO2 (racemic) [Example 32, 3-(4-((2-(2,3-dihydrobenzo[b] [1,4]dioxin-6-yl)pyrrolidin-1-yl)methyl)-3-fluorophenyl)pyridine] | 0.05 to 0.2 µM
2 | CN1CCN(c2ccc(CN3CCCC3c3ccc4c(c3)OCCO4)cc2)CC1 (racemic) [Example 146] | 1 to 10 µM
3 | c1cc(-c2ccc(CN3CCCC3c3ccc4c(c3)OCCO4)cc2)ccn1 (racemic) [Example 46, 4-(4-((2-(2,3-dihydrobenzo[b] [1,4]dioxin-6-yl)pyrrolidin-1-yl)methyl)phenyl)pyridine] | 0.2 to 1 µM
4 | N#Cc1cnc(-c2ccc(CN3CCCC3c3ccc4c(c3)OCCO4)cc2)s1 (racemic) [Example 60, 2-(4-((2-(2,3-dihydrobenzo[b] [1,4]dioxin-6-yl)pyrrolidin-1-yl)methyl)phenyl)thiazole-5-carbonitrile] | 0.05 to 0.2 µM
5 | O=C1CSCCN1c1ccc(CN2CCCC2c2ccc3c(c2)OCCO3)cc1 (single isomer, unassigned) [Example 73] | 0.2 to 1 µM
6 | c1ccc(-c2ccc(CN3CCCC3c3ccc4c(c3)OCCO4)cc2)cc1 (racemic) [Example 9, 1-([1,1′-biphenyl]-4-ylmethyl)-2-(2,3-dihydrobenzo[b] [1,4]dioxin-6-yl)pyrrolidine] | 0.2 to 1 µM
7 | Brc1cnn(-c2ccc(CN3CCCC3c3ccc4c(c3)OCCO4)cc2)c1 (racemic) [Example 51, 4-bromo-1-(4-((2-(2,3-dihydrobenzo[b] [1,4]dioxin-6-yl)pyrrolidin-1-yl)methyl)phenyl)-1H-pyrazole] | 0.05 to 0.2 µM
8 | Cn1ccc(-c2ccc(CN3CCCC3c3ccc4c(c3)OCCO4)cc2)n1 (racemic) [Example 152] | 0.2 to 1 µM
9 | c1cnc2ccc(CN3CCCC3c3ccc4c(c3)OCCO4)cc2c1 (single isomer, unassigned) [Example 25, (S)-6-((2-(2,3-dihydrobenzo[b] [1,4]dioxin-6-yl)pyrrolidin-1-yl)methyl)quinolone or (R)-6-((2-(2,3-dihydrobenzo[b] [1,4]dioxin-6-yl)pyrrolidin-1-yl)methyl)quinolone] | 0.05 to 0.2 µM
10 | Cc1cc(-c2cnn(C)c2)ccc1CN1CCCC1c1ccc2c(c1)OCCO2 (racemic) [Example 45, 4-(4-((2-(2,3-dihydrobenzo[b] [1,4]dioxin-6-yl)pyrrolidin-1-yl)methyl)-3-methylphenyl)-1-methyl-1H-pyrazole] | 0.05 to 0.2 µM
11 | c1cnn(-c2ccc(CN3CCCC3c3ccc4c(c3)OCCO4)cc2)c1 (racemic) [Example 16, 1-(4-((2-(2,3-dihydrobenzo[b] [1,4]dioxin-6-yl)pyrrolidin-1-yl)methyl)phenyl)-1H-pyrazole] | 0.05 to 0.2 µM
12 | Clc1cc(-c2ccccn2)ccc1CN1CCCC1c1ccc2c(c1)OCCO2 (racemic) [Example 43, (3-chloro-4-((2-(2,3-dihydrobenzo[b] [1,4]dioxin-6-yl)pyrrolidin-1-yl)methyl)phenyl) pyridine] | 1 to 10 µM
13 | Cn1cc(-c2ccc(CN3CCCC3c3ccc4c(c3)OCCO4)cn2)cn1 (racemic) [Example 5, 5-((2-(2,3-dihydrobenzo[b] [1,4]dioxin-6-yl)pyrrolidin-1-yl)methyl)-2-(1-methyl-1H-pyrazol-4-yl)pyridine] | 0.05 to 0.2 µM
14 | c1cc(N2CCSCC2)ccc1CN1CCCC1c1ccc2c(c1)OCCO2 (racemic) [Example 28, 4-(4-((2-(2,3-dihydrobenzo[b] [1,4]dioxin-6-yl)pyrrolidin-1-yl)methyl) Phenyl) thiomorpholine] | 0.2 to 1 µM
15 | Cc1cc(-c2ccc(CN3CCCC3c3ccc4c(c3)OCCO4)cn2)ccn1 (racemic) [Example 155] | 0.2 to 1 µM
16 | c1ccc(-c2ccc(CN3CCCC3c3ccc4c(c3)OCCO4)cc2)nc1 (racemic) [Example 29, 2-(4-((2-(2,3-dihydrobenzo[b] [1,4]dioxin-6-yl)pyrrolidin-1-yl)methyl)phenyl)pyridine] | 0.2 to 1 µM
17 | CS(=O)(=O)c1ccc(CN2CCCC2c2ccc3c(c2)OCCO3)cc1 (racemic) [Example 8, 2-(2,3-dihydrobenzo[b] [1,4]dioxin-6-yl)-1-(4-(methylsulfonyl)benzyl) pyrrolidine] | 0.2 to 1 µM
18 | c1cnc(-c2ccc(CN3CCCC3c3ccc4c(c3)OCCO4)cc2)nc1 (racemic) [Example 69, 2-(4-((2-(2,3-dihydrobenzo[b] [1,4]dioxin-6-yl)pyrrolidin-1-yl)methyl)phenyl) pyrimidine] | 0.05 to 0.2 µM
19 | Cc1ccc(-c2nc(CN3CCCC3c3ccc4c(c3)OCO4)co2)cc1 (single isomer, unassigned) [Example 2, (S)-4-((2-(benzo[d] [1,3]dioxol-5-yl)pyrrolidin-1-yl)methyl)-2-(D-tolyl)oxazole or (R)-4-((2-(benzo[d] [1,3]dioxol-5-yl)pyrrolidin-1-yl)methyl)-2-(D-tolyl)oxazole] | 1 to 10 µM
20 | COc1ncc(-c2ccc(CN3CCCC3c3ccc4c(c3)OCCO4)cc2)cn1 (racemic) [Example 159] | < 0.05 µM
21 | c1ncn(-c2ccc(CN3CCCC3c3ccc4c(c3)OCCO4)cc2)n1 (racemic) [Example 34, 1-(4-((2-(2,3-dihydrobenzo[b] [1,4]dioxin-6-yl)pyrrolidin-1-yl)methyl)phenyl)-1H-1,2,4-triazole] | 0.05 to 0.2 µM
22 | N#Cc1ccc(Oc2ccc(CN3CCCC3c3ccc4c(c3)OCCO4)cc2)cc1 (racemic) [Example 154] | 0.2 to 1 µM

Second part, the compound after the results:

Row | IC50 | Compound
23 | 0.2 to 1 µM | CS(=O)(=O)c1ccc(CN2CCCC2c2ccc3c(c2)OCC3)cc1 (racemic) [Example 10, 2-(2,3-dihydrobenzofuran-6-yl)-1-(4-(methylsulfonyl)benzyl)pyrrolidine]
24 | 0.05 to 0.2 µM | Cn1cc(-c2ccc(CN3CCCC3c3ccc4cccnc4c3)cc2)cn1 (racemic) [Example 150]
25 | 0.2 to 1 µM | CC(=O)Nc1ncc(CN2CCCC2c2ccc3c(c2)OCCO3)s1 (racemic) [Example 50, N-(5-((2-(2,3-dihydrobenzo[b] [1,4]dioxin-6-yl)pyrrolidin-1-yl)methyl)thiazol-2-yl)acetamide]
26 | 0.2 to 1 µM | c1ccc(-c2ccc(CN3CCCC3c3ccc4c(c3)OCC4)cc2)cc1 (racemic) [Example 22, 1-([1,1′-biphenyl]-4-ylmethyl)-2-(2,3-dihydrobenzofuran-6-yl)pyrrolidine]
27 | 0.2 to 1 µM | Clc1cc(-c2cccnc2)ccc1CN1CCCC1c1ccc2c(c1)OCCO2 (racemic) [Example 31, 3-(3-chloro-4-((2-(2,3-dihydrobenzo[b] [1,4]dioxin-6-yl)pyrrolidin-1-yl)methyl)phenyl)pyridine]
28 | 0.2 to 1 µM | Cn1cc(-c2cccc(CN3CCCC3c3ccc4c(c3)OCCO4)c2)cn1 (racemic) [Example 21, 4-(3-((2-(2,3-dihydrobenzo[b] [1,4]dioxin-6-yl)pyrrolidin-1-yl)methyl)phenyl)-1-methyl-1H-Pyrazole]
29 | 0.05 to 0.2 µM | N#Cc1cnn(-c2ccc(CN3CCCC3c3ccc4c(c3)OCCO4)cc2)c1 (racemic) [Example 52, 1-(4-((2-(2,3-dihydrobenzo[b] [1,4]dioxin-6-yl)pyrrolidin-1-yl)methyl)phenyl)-1H-pyrazole-4-carbonitrile]
30 | 0.2 to 1 µM | c1cnc(N2CCC(CN3CCCC3c3ccc4c(c3)OCCO4)CC2)nc1 (racemic) [Example 35, 2-(4-((2-(2,3-dihydrobenzo[b] [1,4]dioxin-6-yl)pyrrolidin-1-yl)methyl)piperidin-1-yl)pyrimidine]
31 | 0.05 to 0.2 µM | Fc1ccc(-c2ccc(CN3CCCC3c3ccc4c(c3)OCCO4)cc2)nc1 (racemic) [Example 160]
32 | 0.2 to 1 µM | CS(=O)(=O)N1CCN(c2ccc(CN3CCCC3c3ccc4c(c3)OCCO4)cc2)CC1 (racemic) [Example 36, 1-(4-((2-(2,3-dihydrobenzo[b] [1,4]dioxin-6-yl)pyrrolidin-1-yl)methyl)phenyl)-4-(methylsulfonyl)piperazine]
33 | 0.2 to 1 µM | O=S1(=O)CCN(c2ccc(CN3CCCC3c3ccc4c(c3)OCCO4)cc2)CC1 (racemic) [Example 66, 4-(4-((2-(2,3-dihydrobenzo[b] [1,4]dioxin-6-yl)pyrrolidin-1-yl)methyl)phenyl)thiomorpholine 1,1-dioxide]

Reference: patent US12016852B2, “Pyrrolidine glycosidase inhibitors” (Asceneuron SA, priority 2018, dated 2024)
